The numbers were not newly measured in patent publication US20250287953A1 (CHEMICEUTICAL INC., priority 2021, published 2025), which cites them from elsewhere.

zinc pyrithione: the “acute oral toxicity to rodents LD50 (50% lethal dose)” value was 269 mg/kg.
